77 compounds from US20170247366A1, “SUBSTITUTED 4-ALKOXYPICOLINAMIDE ANALOGS AS MGLUR5 NEGATIVE ALLOSTERIC MODULATORS AND METHODS OF MAKING AND USING THE SAME” (VANDERBILT UNIVERSITY, priority 2014, published 2017) can be followed below.

The target in the assay is T1, rat mGluR5 (Rattus norvegicus, UniProt P31424).
T1 construct: expressed in transfected cells
T1 sequence (P31424 21-1203): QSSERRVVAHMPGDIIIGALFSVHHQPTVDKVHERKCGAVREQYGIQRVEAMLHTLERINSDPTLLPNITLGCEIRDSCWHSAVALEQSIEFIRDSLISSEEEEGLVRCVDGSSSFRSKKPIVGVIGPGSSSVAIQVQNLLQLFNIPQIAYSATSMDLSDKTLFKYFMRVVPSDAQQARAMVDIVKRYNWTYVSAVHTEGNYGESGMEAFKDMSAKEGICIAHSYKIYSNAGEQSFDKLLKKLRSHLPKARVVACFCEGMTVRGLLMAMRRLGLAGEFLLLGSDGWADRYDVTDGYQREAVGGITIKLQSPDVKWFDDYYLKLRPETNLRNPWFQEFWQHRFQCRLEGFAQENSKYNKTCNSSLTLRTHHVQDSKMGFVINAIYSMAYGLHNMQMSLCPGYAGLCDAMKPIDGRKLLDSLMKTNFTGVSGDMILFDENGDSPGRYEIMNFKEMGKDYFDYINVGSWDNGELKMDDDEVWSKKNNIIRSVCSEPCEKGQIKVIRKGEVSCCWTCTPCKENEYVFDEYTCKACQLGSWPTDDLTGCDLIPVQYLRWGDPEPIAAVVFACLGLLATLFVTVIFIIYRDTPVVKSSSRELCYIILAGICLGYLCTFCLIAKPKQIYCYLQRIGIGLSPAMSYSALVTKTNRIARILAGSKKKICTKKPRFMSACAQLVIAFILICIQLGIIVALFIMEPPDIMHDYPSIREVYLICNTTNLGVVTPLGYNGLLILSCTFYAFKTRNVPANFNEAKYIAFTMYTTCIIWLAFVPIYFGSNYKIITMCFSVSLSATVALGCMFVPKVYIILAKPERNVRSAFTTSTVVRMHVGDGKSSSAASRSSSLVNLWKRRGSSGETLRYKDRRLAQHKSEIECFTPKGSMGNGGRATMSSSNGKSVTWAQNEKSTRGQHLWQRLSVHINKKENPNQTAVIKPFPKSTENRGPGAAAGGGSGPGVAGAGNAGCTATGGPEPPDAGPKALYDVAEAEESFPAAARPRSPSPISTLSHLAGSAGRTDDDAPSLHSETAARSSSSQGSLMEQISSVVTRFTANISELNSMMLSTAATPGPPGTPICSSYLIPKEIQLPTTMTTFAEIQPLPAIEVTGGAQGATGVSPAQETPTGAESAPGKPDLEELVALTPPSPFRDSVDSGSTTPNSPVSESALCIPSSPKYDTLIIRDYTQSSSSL
Put plainly: mGluR5 calcium flux assay in HEK 293A cells, negative allosteric modulation of glutamate EC80 response. Type of assay: cell-based. Conditions: HEK cells transfected with rat mGluR5; glutamate EC80; ± is standard error of at least three experiments. On the procedure: HEK 293A cells stably expressing either rat or human mGluR5 were plated in black-walled, clear-bottomed, poly-D-lysine coated 384-well plates in 20 μL of assay medium (DMEM containing 10% dialyzed FBS, 20 mM HEPES, 100 units/mL penicillin/streptomycin plus 250 ng/mL Fungizone, and 1 mM sodium pyruvate) at a density of 20K cells/well. The cells were grown overnight at 37° C. in the presence of 5% CO2. The next day, medium was removed and the cells incubated with 20 μL of 2.3 µM Fluo-4, AM prepared as a 2.3 mM stock in DMSO and mixed in a 1:1 ratio with 10% (w/v) pluronic acid F-127 and diluted in assay buffer (Hank's balanced salt solution, 20 mM HEPES, and 2.5 mM probenecid) for 45 minutes at 37° C. Dye was removed, 20 μL of assay buffer was added, and the plate was incubated for 5 minutes at room temperature.
Ca^2+ flux was measured using the Functional Drug Screening System (FDSS7000, Hamamatsu, Japan). After establishment of a fluorescence baseline for about 3 seconds, the compounds of the present invention were added to the cells, and the response in cells was measured. 2.3 minutes later an EC20 concentration of the mGluR5 receptor agonist glutamate was added to the cells, and the response of the cells was measured for 1.9 minutes; an EC80 concentration of agonist was added and readings taken for an additional 1.7 minutes. All test compounds were dissolved and diluted to a concentration of 10 mM in 100% DMSO. Compounds were then serially diluted 1:3 in DMSO into 10 point concentration response curves, transferred to daughter plates, and further diluted into assay buffer to a 2× stock. Calcium fluorescence measures were recorded as fold over basal fluorescence; raw data was then normalized to the maximal response to glutamate. Antagonism of the agonist response of the mGluR5 receptor in the present invention was observed as a decrease in response to nearly maximal concentrations of glutamate in the presence of compound compared to the response to glutamate in the absence of compound.
The raw data file containing all time points was used as the data source in the analysis template. This was saved by the FDSS as a tab-delimited text file. Data were normalized using a static ratio function (F/F0) for each measurement of the total 360 values per well divided by each well's initial value. Data were then reduced to peak amplitudes (Max−Initial Min) using a time range that starts approximately 3 seconds prior to the glutamate EC20/EC80 addition and continues for approximately 90-120 seconds. This is sufficient time to capture the peak amplitude of the cellular calcium response. Individual amplitudes were expressed as % EMax by multiplying each amplitude by 100 and then dividing the product by the mean of the amplitudes derived from the glutamate ECMax-treated wells. IC50 values for test compounds were generated by fitting the normalized values versus the log of the test compound concentration (in mol/L) using a 4 parameter logistic equation where none of the parameters were fixed. Each of the three values collected at each concentration of test compound were weighted evenly.
For NAMs with a CRC that plateaus above 10% Glu Max, the IC50 values are reported, the compound is designated a “partial NAM” and the % Glu Max is reported. […] Compounds without measurable activity are designated as “>30,000 nM” since the top concentration of compound tested in the assay is 30 µM. Exemplary data are provided in Tables 1 and 2 below.
Table 1 below lists specific compounds, experimentally determined molecular mass, and mGluR5 activity determined in a cell-based assay. The mGluR5 activity was determined using the metabotropic glutamate receptor activity assays in human embryonic kidney cells as described herein, wherein the human embryonic kidney cells were transfected with rat mGluR5. The mGluR5 activity data for some compounds are shown as the average of at least three experiments with the standard error in these cases. […]
(In general: A change in cytosolic calcium serves as a functional read-out for many receptors and channels.)
On to `Cc1cc(OC2CCCC2)cc(C(=O)Nc2ccccn2)n1`, for which the IC50 came out at 182 nM.
Consider `Cc1cc(OC2CCCC2)cc(C(=O)Nc2nc(C)cs2)n1`, for which the IC50 worked out at 149 nM.
Under `Cc1cc(O[C@@H]2CCOC2)cc(C(=O)Nc2ccc(F)cn2)n1` stands 41 ± 3 nM.
Under `Cc1cc(OC2CCC2)cc(C(=O)Nc2ccc(F)cn2)n1` stands 182 nM; under `Cc1cc(OC2COC2)cc(C(=O)Nc2ccccn2)n1`, 66 nM; under `Cc1cc(OC2COC2)cc(C(=O)Nc2nc(C)cs2)n1`, 70 ± 10 nM.
Consider `Cc1cc(OC2CCCC2)cc(C(=O)Nc2ccc(F)cn2)n1`, for which the IC50 was determined as 3660 nM.
Under `Cc1cc(OC[C@@H]2CCOC2)cc(C(=O)Nc2ccc(F)cn2)n1` stands 469 nM; under `Cc1cc(OC[C@H]2CCOC2)cc(C(=O)Nc2ccccn2)n1`, 972 nM; under `Cc1cc(OC[C@H]2CCOC2)cc(C(=O)Nc2nc(C)cs2)n1`, 364 nM.
Under `COCCOc1cc(C)nc(C(=O)Nc2ccc(F)cn2)c1` stands 527 nM; under `Cc1cccc(NC(=O)c2cc(OC3COC3)cc(C)n2)n1`, 59 nM; under `COc1cccc(NC(=O)c2cc(OC3COC3)cc(C)n2)n1`, 1050 nM.
The result for `Cc1cc(OC2COC2)cc(C(=O)Nc2cccc(Cl)n2)n1` reads 162 nM.
For `COc1ccc(NC(=O)c2cc(OC3COC3)cc(C)n2)nc1`, the IC50 is 1390 nM.
Under `Cc1cc(OC2COC2)cc(C(=O)Nc2ccc(Cl)cn2)n1` stands 1530 nM.
Take `Cc1cc(OC2CC3(COC3)C2)cc(C(=O)Nc2ccccn2)n1`: the IC50 turned out to be 1680 nM.
For the compound `Cc1cc(OC2CC3(COC3)C2)cc(C(=O)Nc2nc(C)cs2)n1`, the IC50 was determined as 433 nM.
The result for `Cc1cc(OCC2COCCO2)cc(C(=O)Nc2ccc(F)cn2)n1` (centres unmarked) reads 7680 nM; that for `Cc1cc(OC2CCSC2)cc(C(=O)Nc2ccccn2)n1` (centres unmarked), 39 nM.
Regarding `Cc1cc(OC2CCSC2)cc(C(=O)Nc2nc(C)cs2)n1` (centres unmarked), the IC50 was found to be 77 nM.
On to `Cc1ccc(NC(=O)c2cc(OC3COC3)cc(C)n2)nc1`, for which the IC50 stood at 1480 nM.
Regarding `Cc1cc(OC2CC3(COC3)C2)cc(C(=O)Nc2ccc(F)cn2)n1`, the IC50 was 3710 nM.
In the case of `Cc1cc(OCC2COCCO2)cc(C(=O)Nc2ccccn2)n1` (centres unmarked), the IC50 amounted to 1780 nM.
For the compound `Cc1cc(OCC2COCCO2)cc(C(=O)Nc2nc(C)cs2)n1` (centres unmarked), the IC50 is 616 nM.
Under `Cc1cc(OC2CCSC2)cc(C(=O)Nc2ccc(F)cn2)n1` (centres unmarked) stands 75 nM; under `Cc1cc(OC2(C)COC2)cc(C(=O)Nc2ccc(F)cn2)n1`, 863 nM.
Under `Cc1cc(O[C@H]2CO[C@H](C)C2)cc(C(=O)Nc2ccc(F)cn2)n1` stands 175 ± 21 nM; under `Cc1cc(O[C@H]2CO[C@@H](C)C2)cc(C(=O)Nc2ccc(F)cn2)n1`, 4470 ± 260 nM; under `Cc1cc(O[C@H]2CO[C@H](C)C2)cc(C(=O)Nc2nc(C)cs2)n1`, 81 ± 13 nM.
For the compound `Cc1cc(OCC2CCOCC2)cc(C(=O)Nc2ccccn2)n1`, the IC50 worked out at 1460 nM.
Under `Cc1cc(OCC2CCOCC2)cc(C(=O)Nc2nc(C)cs2)n1` stands 610 nM; under `Cc1cc(OCC2CCCCO2)cc(C(=O)Nc2ccc(F)cn2)n1` (centres unmarked), at least 10000 nM; under `Cc1cc(OC2CCS(=O)(=O)C2)cc(C(=O)Nc2ccc(F)cn2)n1` (centres unmarked), 634 nM.
Turning to `Cc1cc(O[C@H]2CO[C@@H](C)C2)cc(C(=O)Nc2nc(C)cs2)n1`, the 50% inhibitory concentration (IC50) came out at 684 ± 107 nM.
The result for `Cc1cc(OCC2CCOCC2)cc(C(=O)Nc2ccc(F)cn2)n1` reads 5720 nM; that for `Cc1cc(OCC2CCCCO2)cc(C(=O)Nc2ccccn2)n1` (centres unmarked), 2970 nM; that for `Cc1cc(OCC2CCCCO2)cc(C(=O)Nc2nc(C)cs2)n1` (centres unmarked), 1920 nM.
Under `CC(=O)N1CC(Oc2cc(C)nc(C(=O)Nc3ccc(F)cn3)c2)C1` stands 756 ± 130 nM; under `Cc1cc(OC2CN(S(C)(=O)=O)C2)cc(C(=O)Nc2ccc(F)cn2)n1`, 1310 nM; under `CCOCCOc1cc(C)nc(C(=O)Nc2ccccn2)c1`, 842 nM.
Under `CCOCCOc1cc(C)nc(C(=O)Nc2ccc(F)cn2)c1` stands 2100 nM.
As for `COCCOCCOc1cc(C)nc(C(=O)Nc2ccccn2)c1`, the IC50 was determined as 2540 nM.
`COCCOCCOc1cc(C)nc(C(=O)Nc2nc(C)cs2)c1`: the IC50 stood at 954 nM.
Under `COCCCOc1cc(C)nc(C(=O)Nc2ccc(F)cn2)c1` stands 2630 nM.
The result for `COC[C@H](C)Oc1cc(C)nc(C(=O)Nc2ccccn2)c1` reads 2720 nM; that for `COC[C@H](C)Oc1cc(C)nc(C(=O)Nc2nc(C)cs2)c1`, 932 nM.
Consider `COC[C@@H](C)Oc1cc(C)nc(C(=O)Nc2ccc(F)cn2)c1`, for which the 50% inhibitory concentration (IC50) was found to be 9100 nM.
The result for `CCOCCOc1cc(C)nc(C(=O)Nc2nc(C)cs2)c1` reads 364 nM.
The result for `COCCOCCOc1cc(C)nc(C(=O)Nc2ccc(F)cn2)c1` reads 6930 nM.
Under `COCCCOc1cc(C)nc(C(=O)Nc2ccccn2)c1` stands 844 nM.
For the compound `COCCCOc1cc(C)nc(C(=O)Nc2nc(C)cs2)c1`, the IC50 was determined as 506 nM.
On to `COC[C@H](C)Oc1cc(C)nc(C(=O)Nc2ccc(F)cn2)c1`, for which the IC50 stood at 7610 nM.
Take `COC[C@@H](C)Oc1cc(C)nc(C(=O)Nc2ccccn2)c1`: the IC50 worked out at 2130 nM.
The result for `COC[C@@H](C)Oc1cc(C)nc(C(=O)Nc2nc(C)cs2)c1` reads 1030 nM; that for `CO[C@H](C)COc1cc(C)nc(C(=O)Nc2ccccn2)c1`, 194 nM.
Under `CO[C@H](C)COc1cc(C)nc(C(=O)Nc2nc(C)cs2)c1` stands 145 nM; under `CO[C@@H](C)COc1cc(C)nc(C(=O)Nc2ccc(F)cn2)c1`, 4930 nM; under `Cc1cc(O[C@@H]2CCOC2)cc(C(=O)Nc2nc(CF)cs2)n1`, 71 nM.
Consider `Cc1cc(O[C@@H]2CCOC2)cc(C(=O)Nc2nc(C(F)F)cs2)n1`, for which the IC50 was found to be 247 nM.
The result for `Cc1cc(O[C@@H]2CCOC2)cc(C(=O)Nc2nc(C(F)(F)F)cs2)n1` reads 2040 nM; that for `Cc1cc(O[C@@H]2CCOC2)cc(C(=O)Nc2nc(C3CC3)cs2)n1`, 153 nM.
Under `CO[C@H](C)COc1cc(C)nc(C(=O)Nc2ccc(F)cn2)c1` stands 718 nM.
Under `CO[C@@H](C)COc1cc(C)nc(C(=O)Nc2ccccn2)c1` stands 2210 nM; under `CO[C@@H](C)COc1cc(C)nc(C(=O)Nc2nc(C)cs2)c1`, 1050 nM.
In the case of `Cc1cc(O[C@H]2CO[C@H](C)C2)cc(C(=O)Nc2nc(CF)cs2)n1`, the IC50 was found to be 180 nM.
With `Cc1cc(O[C@H]2CO[C@H](C)C2)cc(C(=O)Nc2nc(C(F)F)cs2)n1`, the IC50 came to 902 nM.
Under `Cc1cc(O[C@H]2CO[C@H](C)C2)cc(C(=O)Nc2nc(C(F)(F)F)cs2)n1` stands 5200 nM; under `Cc1cc(O[C@H]2CO[C@H](C)C2)cc(C(=O)Nc2nc(C3CC3)cs2)n1`, 899 nM; under `Cc1cc(O[C@@H]2CCOC2)cc(C(=O)Nc2nc(C)c(F)s2)n1`, 171 nM.
The result for `Cc1cc(OC2CSC2)cc(C(=O)Nc2ccc(F)cn2)n1` reads 37 nM.
Under `Cc1cc(OC2C[S+]([O-])C2)cc(C(=O)Nc2ccc(F)cn2)n1` (centres unmarked) stands 533 nM; under `Cc1cc(OC2CS(=O)(=O)C2)cc(C(=O)Nc2ccc(F)cn2)n1`, 742 nM; under `CC(=O)N1CC(Oc2cc(C)nc(C(=O)Nc3nc(C)cs3)c2)C1`, 388 nM.
Consider `Cc1cc(OC2CN(C(=O)CC(C)C)C2)cc(C(=O)Nc2nc(C)cs2)n1`, for which the IC50 is 1670 nM.
Take `Cc1cc(O[C@H]2CO[C@H](C)C2)cc(C(=O)Nc2nc(C)c(F)s2)n1`: the 50% inhibitory concentration (IC50) was 1290 nM.
The result for `Cc1cc(OC2CSC2)cc(C(=O)Nc2nc(C)cs2)n1` reads 31 nM.

Usually IC50 stands for the concentration at which inhibition is half-maximal.
